Assay results as given in patent US5364615A (priority 1992, dated 1994).
Several values for one entry are separate records, joined by “and”; a condition that tells them apart may be missing. Equal values may be shown once. Entries after “also recorded” stand apart in the source; their conditions may differ. Read-outs that look alike come from different tables or passages of the source.

How the values were obtained:
[1] = tested on: Pneumocystis carinii; settings: human, in vivo
Text: The initial diagnosis of P. carinii pneumonia was based on finding the organism in induced sputum or bronchoalveolar lavage specimens.
Treatment was as described in Example 3.
Chest radiographs and arterial blood gas tensions were obtained as clinically indicated.

[2] = human, in vivo
[3] = tested on: Pneumocystis carinii; experiment: Post-exposure prophylaxis of PCP (Example 5); type: in vivo, human; settings: for Percent Alive & Free of Relapse: 300 mg once per month
Text: Within 30 days of initiation of prophylaxis, ten patients were omitted due to treatment (9) or relapse (1). Of the 93 patients, 48 had had at least one previous episode of PCP. Two-thirds of the patients were taking AZT at the onset and throughout the duration of the post-exposure prophylaxis. The median and maximum duration of treatment at the time of analysis was 3.1 and 5.2 months.

[4] = tested on: Pneumocystis carinii; settings: cited from earlier work
[5] = Adverse reactions and toxicity during PCP therapy (Example 3); settings: for FEV1/FVC ratio: mean±1 SD
[6] = literature, cited from earlier work
[7] = clinical; settings: human, serum, inhaled or intranasal, 300 mg
Procedure: Adult patients having or suspected of having AIDS, and who were hospitalized for a fiberoptic bronchoscopy to evaluate diffuse infiltrates on chest radiographs, were studied. The patients were divided into two groups. […] Two patients had received one dose and the other three doses.
Eighteen to 24 hours later both groups underwent fiberoptic bronchoscopy. After inspection of the airways, 3-5 aliquots (20 mL) of normal saline were injected and aspirated from the right middle lobe until at least 40 mL was recovered: C. […] Lavage fluid was centrifuged at 1,000×g for 10 min at 10° C. […] Briefly, proteins were precipitated with acetonitrile containing hexamidine as an internal standard. […] The lower limit of sensitivity of the assay was 2-3 ng/mL. Two sample t-test was used to compare groups: p values of <0.05 were regarded as significant.

[8] = cited from earlier work
[9] = Aerosol particle size of pentamidine; type: physicochemical; settings: for particle size (MMAD): Respirgard II
Text: A compressed oxygen (5-7 L/min at 345 kPa, 50 psi) powered nebulizer produces the aerosol and one-way valves provide for entrainment of room air in patients whose minute ventilation is high, act as a baffle to decrease particle size, and direct expired air to a filter which removes the remaining particles of drug thereby preventing environmental contamination.
Particles were sized with a 7 stage Mercer cascade impactor (Intox Products, Albuquerque, N. Mex.). The gas supply was 6 L/min, the sample stream was not dried, and the impactor flow rates were 0.5 L/min. […] Results from the average of three determinations at each location were expressed as mass median aerodynamic diameter ±geometric standard deviation (MMAD±GSD). Raabe, J Aerosol Sci (1971) Z:289-303.

[10] = type: in vivo, human
Text: Five patients who developed PCP within 28 days were not evaluated. One hundred (66%) of the patients were concurrently receiving AZT, and 42 (28%) had experienced one prior episode of PCP.

[11] = tested on: Pneumocystis carinii; experiment: Randomized clinical trial of PCP prophylaxis (Example 8); type: in vivo, human
[12] = distal to the nebulizer (point A)
[13] = all strata, eligible, PCP within 60 days, 30 mg
[14] = all strata, eligible, PCP within 60 days, 150 mg
[15] = all strata, eligible, PCP within 60 days, 300 mg, p .004 (30 vs 300 mg)
[16] = all strata, eligible, confirmed PCP within 60 days, 30 mg
[17] = all strata, eligible, confirmed PCP within 60 days, 150 mg
[18] = all strata, eligible, confirmed PCP within 60 days, 300 mg, p .0008 (30 vs 300 mg)
[19] = all strata, intention to treat, all PCP, 30 mg
[20] = all strata, intention to treat, all PCP, 150 mg
[21] = all strata, intention to treat, all PCP, 300 mg, p .02 (30 vs 300 mg)
[22] = prior PCP strata, eligible, PCP within 60 days, 30 mg
[23] = prior PCP strata, eligible, PCP within 60 days, 150 mg
[24] = prior PCP strata, eligible, PCP within 60 days, 300 mg, p .006 (30 vs 300 mg)
[25] = prior PCP strata, eligible, confirmed PCP within 60 days, 30 mg
[26] = prior PCP strata, eligible, confirmed PCP within 60 days, 150 mg
[27] = prior PCP strata, eligible, confirmed PCP within 60 days, 300 mg, p .002 (30 vs 300 mg)
[28] = prior PCP strata, intention to treat, all PCP, 30 mg
[29] = prior PCP strata, intention to treat, all PCP, 150 mg
[30] = prior PCP strata, intention to treat, all PCP, 300 mg, p .02 (30 vs 300 mg)

## N=C(N)c1ccc(OCCCCCOc2ccc(C(=N)N)cc2)cc1 [pentamidine, p,p'-(pentamethylenedioxy)dibenzamidine]
[1]
  clinical response (hypoxia, fever, dyspnea, radiographs): none of the patients were hypoxic or febrile, all had improvement in dyspnea, and all had current or subsequent chest radiographs indicating roentrographic improvement of infiltrates
  completion of therapy: All patients successfully completed therapy
[2]
  frequent adverse effect observed clinically: transient airway irritation
[3]; 300 mg by inhalation once monthly, based on historical controls
  reduction in the incidence of PCP: 5 fold
[3]; 0.0 months
  Percent Alive & Free of Relapse: 100.0%
[3]; 2.3 months
  Percent Alive & Free of Relapse: 98.57%
[3]; 2.5 months
  Percent Alive & Free of Relapse: 97.12%
[3]; 2.9 months
  Percent Alive & Free of Relapse: 95.53%
[3]; 3.0 months
  Percent Alive & Free of Relapse: 93.85%
[3]; 3.1 months
  Percent Alive & Free of Relapse: 92.08%
[3]; 3.7 months
  Percent Alive & Free of Relapse: 89.78%
[3]; 5.2 months
  Percent Alive & Free of Relapse: 79.81%
[3]; single prior episode of PCP
  delay of relapse: at least 5 months
[3]; single prior episode, vs 10 based on 132 historical controls, p<0.01
  observed PCP cases: 3
[4]; baseline, literature
  Pre therapy DLCO: 59.0 percent predicted
  Pre therapy PaO2: 69.3 torr
  Pre therapy Vital Capacity: 70 percent predicted
[4]; literature
  Successful Treatment W/ Change, %: 95%
  Successful Treatment w/o Change, %: 40%
[4]; post therapy, literature (TMP-DPS: only 8 patients tested)
  Post therapy PaO2: 87.2 torr
[4]; post therapy, literature
  Post therapy DLCO: 62 percent predicted
  Post therapy Vital Capacity: 80 percent predicted
[5]; end of therapy
  FEV1/FVC ratio: 79.9±15.8%
[5]; first 4 patients
  FEV1/FVC ratio, single treatment: no different before and after a single treatment
[5]; in vivo
  bronchospasm / airway obstruction: Neither clinical nor spirometric evidence of airway obstruction occurred; also recorded: Clinical bronchospasm was not seen
[5]; initial testing
  FEV1/FVC ratio: 76.1±12.2%
[5]; n = 15
  Toxicity Req Change of Therapy, %: 0%
[6]
  Toxicity Req Change of Therapy, %: 55%
[6]; parenteral pentamidine, TMP-SMX
  rate of severe reactions: 50%
[7]
  concentration at 0.5 h: 0.013 µg/mL
[8]; TMP-SMX oral/parenteral or pentamidine isethionate parenteral
  patients developing severe toxicity requiring discontinuation: approximately 50%
[8]; parenteral pentamidine
  side effects: elevation of liver enzymes, hematologic disturbances with neutropenia and thrombocytopenia, fever, hypocalcemia, and hallucinations
[8]; patients receiving (parenteral) pentamidine
  impaired renal function: about 25%
[9]; Example 3, nebulizer of Example 2, 600 mg in 6 mL
  particle size (MMAD ± GSD): 1.42±1.88 μm
[9]; at the mouthpiece (point B)
  mass of particles larger than 4 μm: less than 5%
  particle size (MMAD): 1.42 μm
[9]; [12]
  mass of particles larger than 4 μm: greater than 20%
  particle size (MMAD): 2.38 μm
[9]; point C
  pentamidine distal to the exhalation filter: No pentamidine was found distal to the exhalation filter
[10]; 3 of 146
  deaths associated with PCP: 2%
[10]; 9 of 146
  deaths due to other causes: 6%
[10]; twelve of 146 evaluable
  patients died: 8%
[11]; 30 mg every two weeks
  Completed without Endpoint: 26
  Died, Due to PCP: 5
  Died, Not due to PCP: 51
  Extrapulmonary Pneumocystis: 0
  PCP, Confirmed: 32
  PCP, Unconfirmed: 9
[11]; 150 mg every two weeks
  Completed without Endpoint: 38
  Died, Due to PCP: 6
  Died, Not due to PCP: 47
  Extrapulmonary Pneumocystis: 1
  PCP, Confirmed: 28
  PCP, Unconfirmed: 4
[11]; 300 mg every four weeks
  Completed without Endpoint: 42
  Died, Due to PCP: 5
  Died, Not due to PCP: 46
  Extrapulmonary Pneumocystis: 0
  PCP, Confirmed: 16
  PCP, Unconfirmed: 12
[11]; 16 of 101 PCP episodes
  case fatality rate from first acute PCP episode: 15.8%
[11]; 19 of 160
  share of all deaths due to PCP: 11.9%
[11]; 30, 150, 300 mg
  all cause mortality between treatment arms: did not significantly differ between the three treatment arms
[11]; Kaplan-Meier, 300 mg every 4 weeks vs 30 mg every 2 weeks, 150 mg vs 30 mg
  time to PCP occurrence, dose comparison: 300 mg of aerosolized pentamidine given every 4 weeks was consistently superior to 30 mg of aerosolized pentamidine given every 2 weeks and The 150 mg arm was superior to the 30 mg arm but less so than the 300 mg arm
[11]; Kaposi's sarcoma stratum
  all cause mortality: 36%
[11]; all doses
  deaths due to PCP: Nineteen deaths occurred due to PCP
[11]; all doses, 408 participants
  deaths: 160
[11]; all doses, KS stratum
  PCP episodes: 8
[11]; all doses, Other HIV stratum
  PCP episodes: 15
[11]; all doses, total and prior PCP stratum
  PCP episodes: One hundred-one PCP episodes; also recorded: Seventy-eight occurred in the prior PCP stratum
[11]; all strata, confirmed PCP on study drug, 30 vs 300
  Relative Hazard of PCP: Cox regression: 3.9 and 3.86
[11]; all strata, confirmed PCP on study drug, 30 vs. 150
  Relative Hazard of PCP: Cox regression: 1.7 and 1.71
[11]; [13]
  No PCP (participants): 89
  PCP (participants): 28
[11]; [14]
  No PCP (participants): 102
  PCP (participants): 18
[11]; [15]
  No PCP (participants): 113
  PCP (participants): 16
[11]; [16]
  No PCP (participants): 95
  PCP (participants): 22
[11]; [17]
  No PCP (participants): 104
  PCP (participants): 16
[11]; [18]
  No PCP (participants): 121
  PCP (participants): 8
[11]; [19]
  No PCP (participants): 94
  PCP (participants): 41
[11]; [20]
  No PCP (participants): 102
  PCP (participants): 32
[11]; [21]
  No PCP (participants): 111
  PCP (participants): 28
[11]; all strata, intention to treat, 30 vs 300
  Relative Hazard of PCP: Cox regression: 1.78
[11]; all strata, intention to treat, 30 vs. 150
  Relative Hazard of PCP: Cox regression: 1.21
[11]; initial CD4 counts greater than 200, no prior PCP, two of 39
  developed PCP: 5.1%
[11]; initial CD4 counts less than 200, no prior PCP, 12 of 89
  developed PCP: 13%
[11]; other HIV stratum
  all cause mortality: 13%
[11]; prior PCP strata, confirmed PCP on study drug, 30 vs 300
  Relative Hazard of PCP: Cox regression: 4.57
[11]; prior PCP strata, confirmed PCP on study drug, 30 vs. 150
  Relative Hazard of PCP: Cox regression: 2.10
[11]; [22]
  No PCP (participants): 42
  PCP (participants): 25
[11]; [23]
  No PCP (participants): 51
  PCP (participants): 16
[11]; [24]
  No PCP (participants): 60
  PCP (participants): 14
[11]; [25]
  No PCP (participants): 47
  PCP (participants): 20
[11]; [26]
  No PCP (participants): 53
  PCP (participants): 14
[11]; [27]
  No PCP (participants): 66
  PCP (participants): 8
[11]; [28]
  No PCP (participants): 46
  PCP (participants): 33
[11]; [29]
  No PCP (participants): 54
  PCP (participants): 24
[11]; [30]
  No PCP (participants): 59
  PCP (participants): 21
[11]; prior PCP strata, intention to treat, 30 vs 300
  Relative Hazard of PCP: Cox regression: 2.11
[11]; prior PCP strata, intention to treat, 30 vs. 150
  Relative Hazard of PCP: Cox regression: 1.40
[11]; prior PCP stratum
  all cause mortality: 53%
[11]; start within 3 months of prior PCP vs later, Cox model
  hazard of PCP by start of therapy: less than half the hazard of PCP
[11]; starting prophylaxis within 3 months of prior PCP
  time to PCP relapse, median: 240 days
[11]; starting with a longer interval since prior episode
  time to PCP relapse, median: 143 days
